Patent US11787825B2 (priority 2021, dated 2023)
Converted amounts (≈) assume the structure as drawn. Read-outs that look alike come from different tables or passages of the source. Marks after values point to notes of the source that are not given here.

Key:
[1] = Beagle, in vivo, po; for Dog F % (suspension): pH 2
physchem = settings: 25 °C, thermodynamic from solid
[2] = 0.1N HCL, 1.0% DMSO, 24-hour incubation at ambient temperature, maximum theoretical compound concentration 100 μM
[3] = 1×PBS buffer (pH 7.4), 1.0% DMSO, 24-hour incubation at ambient temperature, maximum theoretical compound concentration 100 μM
[4] = fasted state simulated intestinal fluid (FaSSIF), fassif
[5] = fed state simulated intestinal fluid (FeSSIF), fessif

| Structure (SMILES) | pH 2 solubility [2] | pH 7 solubility [3] | Dog F % (solution) [1] | Dog F % (suspension) [1] | solubility (physchem; [4]) | solubility (physchem; [5]) | pH 2 solubility (pH 2) | pH 7 solubility (pH 7.4) | solubility (physchem; fassif) | solubility (physchem; fessif) |
| --- | --- | --- | --- | --- | --- | --- | --- | --- | --- | --- |
| CC(C)(C#Cc1ccc(-c2ccc(Cl)c3c(N(C(=O)CCCNC(=O)OCOP(=O)(O)O)S(C)(=O)=O)nn(CC(F)(F)F)c23)c([C@H](Cc2cc(F)cc(F)c2)NC(=O)Cn2nc(C(F)(F)F)c3c2C(F)(F)[C@@H]2C[C@H]32)n1)S(C)(=O)=O [Compound 33, (phosphonooxy)methyl (4-(N-(4-chloro-7-(2-((S)-1-(2-((3bS,4aR)-5,5-difluoro-3-(trifluoromethyl)-3b,4,4a,5-tetrahydro-111-cyclopropa[3,4]cyclopenta[1,2-c]pyrazol-1-yl)acetamido)-2-(3,5-difluorophenyl)ethyl)-6-(3-methyl-3-(methylsulfonyl)but-1-yn-1-yl)pyridin-3-yl)-1-(2,2,2-trifluoroethyl)-1H-indazol-3-yl)methylsulfonamido)-4-oxobutyl)carbamate] | 1 μM | 75 μM | 33^b % | 17% | 326 µg/mL (≈ 270 µM) | 300 µg/mL (≈ 248 µM) |  |  |  |  |
| CC(C)(CNC(=O)OCOP(=O)(O)O)CC(=O)N(c1nn(CC(F)(F)F)c2c(-c3ccc(C#CC(C)(C)S(C)(=O)=O)nc3[C@H](Cc3cc(F)cc(F)c3)NC(=O)Cn3nc(C(F)(F)F)c4c3C(F)(F)[C@@H]3C[C@H]43)ccc(Cl)c12)S(C)(=O)=O [Compound 41, (phosphonooxy)methyl (4-(N-(4-chloro-7-(2-((S)-1-(2-((3bS,4aR)-5,5-difluoro-3-(trifluoromethyl)-3b,4,4a,5-tetrahydro-111-cyclopropa[3,4]cyclopenta[1,2-c]pyrazol-1-yl)acetamido)-2-(3,5-difluorophenyl)ethyl)-6-(3-methyl-3-(methylsulfonyl)but-1-yn-1-yl)pyridin-3-yl)-1-(2,2,2-trifluoroethyl)-1H-indazol-3-yl)methylsulfonamido)-2,2-dimethyl-4-oxobutyl)carbamate] | 1 μM | 100 μM |  | 4% | 1140 µg/mL (≈ 927 µM) | 440 µg/mL (≈ 356 µM) |  |  |  |  |
| CC(C)(CCN(CC(=O)O)C(=O)OCOP(=O)(O)O)C(=O)N(c1nn(CC(F)(F)F)c2c(-c3ccc(C#CC(C)(C)S(C)(=O)=O)nc3[C@H](Cc3cc(F)cc(F)c3)NC(=O)Cn3nc(C(F)(F)F)c4c3C(F)(F)[C@@H]3C[C@H]43)ccc(Cl)c12)S(C)(=O)=O [Compound 43, N-(4-(N-(4-chloro-7-(2-((S)-1-(2-((3bS,4aR)-5,5-difluoro-3-(trifluoromethyl)-3b,4,4a,5-tetrahydro-1H-cyclopropa[3,4]cyclopenta[1,2-c]pyrazol-1-yl)acetamido)-2-(3,5-difluorophenyl)ethyl)-6-(3-methyl-3-(methylsulfonyl)but-1-yn-1-yl)pyridin-3-yl)-1-(2,2,2-trifluoroethyl)-1H-indazol-3-yl)methylsulfonamido)-3,3-dimethyl-4-oxobutyl)-N-(((phosphonooxy)methoxy)carbonyl)glycine] | 2 μM | 100 μM |  | 23% | 2900 µg/mL (≈ 2250 µM) | > 5770 µg/mL |  |  |  |  |
| Cc1cc(CC(=O)O)c(C(C)(C)CC(=O)N(c2nn(CC(F)(F)F)c3c(-c4ccc(C#CC(C)(C)S(C)(=O)=O)nc4[C@H](Cc4cc(F)cc(F)c4)NC(=O)Cn4nc(C(F)(F)F)c5c4C(F)(F)[C@@H]4C[C@H]54)ccc(Cl)c23)S(C)(=O)=O)c(OP(=O)(O)O)c1 [Compound 44] |  |  |  | 27% |  |  | 1/100 μM | 1/100 μM | 2870 µg/mL (≈ 2210 µM) | 460 µg/mL (≈ 355 µM) |
| CC(C)(Cc1ccccc1OP(=O)(O)O)C(=O)N(c1nn(CC(F)(F)F)c2c(-c3ccc(C#CC(C)(C)S(C)(=O)=O)nc3[C@H](Cc3cc(F)cc(F)c3)NC(=O)Cn3nc(C(F)(F)F)c4c3C(F)(F)[C@@H]3C[C@H]43)ccc(Cl)c12)S(C)(=O)=O [Compound 46, 2-(3-(N-(4-chloro-7-(2-((S)-1-(2-((3bS,4aR)-5,5-difluoro-3-(trifluoromethyl)-3b,4,4a,5-tetrahydro-1H-cyclopropa[3,4]cyclopenta[1,2-c]pyrazol-1-yl)acetamido)-2-(3,5-difluorophenyl)ethyl)-6-(3-methyl-3-(methylsulfonyl)but-1-yn-1-yl)pyridin-3-yl)-1-(2,2,2-trifluoroethyl)-1H-indazol-3-yl)methylsulfonamido)-2,2-dimethyl-3-oxopropyl)phenyl dihydrogen phosphate] |  |  |  | 10% |  |  | 1/66 μM | 1/66 μM | 700 µg/mL | > 2150 µg/mL |
| Cc1cc(C(=O)O)cc(OP(=O)(O)O)c1C(C)(C)CC(=O)N(c1nn(CC(F)(F)F)c2c(-c3ccc(C#CC(C)(C)S(C)(=O)=O)nc3[C@H](Cc3cc(F)cc(F)c3)NC(=O)Cn3nc(C(F)(F)F)c4c3C(F)(F)[C@@H]3C[C@H]43)ccc(Cl)c12)S(C)(=O)=O [Compound 49, 4-(4-(N-(4-chloro-7-(2-((S)-1-(2-((3bS,4aR)-5,5-difluoro-3-(trifluoromethyl)-3b,4,4a,5-tetrahydro-1H-cyclopropa[3,4]cyclopenta[1,2-c]pyrazol-1-yl)acetamido)-2-(3,5-difluorophenyl)ethyl)-6-(3-methyl-3-(methylsulfonyl)but-1-yn-1-yl)pyridin-3-yl)-1-(2,2,2-trifluoroethyl)-1H-indazol-3-yl)methylsulfonamido)-2-methyl-4-oxobutan-2-yl)-3-methyl-5-(phosphonooxy)benzoic acid] |  |  |  | 20% |  |  | 3/100 μM | 3/100 μM | 384 µg/mL (≈ 299 µM) | 390 µg/mL (≈ 304 µM) |
| CN(C(=O)N(c1nn(CC(F)(F)F)c2c(-c3ccc(C#CC(C)(C)S(C)(=O)=O)nc3[C@H](Cc3cc(F)cc(F)c3)NC(=O)Cn3nc(C(F)(F)F)c4c3C(F)(F)[C@@H]3C[C@H]43)ccc(Cl)c12)S(C)(=O)=O)c1ncccc1CN(CC(=O)O)C(=O)OCOP(=O)(O)O [Compound 52, N-((2-(3-(4-chloro-7-(2-((S)-1-(2-((3bS,4aR)-5,5-difluoro-3-(trifluoromethyl)-3b,4,4a,5-tetrahydro-1H-cyclopropa[3,4]cyclopenta[1,2-c]pyrazol-1-yl)acetamido)-2-(3,5-difluorophenyl)ethyl)-6-(3-methyl-3-(methylsulfonyl)but-1-yn-1-yl)pyridin-3-yl)-1-(2,2,2-trifluoroethyl)-1H-indazol-3-yl)-1-methyl-3-(methylsulfonyl)ureido)pyridin-3-yl)methyl)-N-(((phosphonooxy)methoxy)carbonyl)glycine] | 2 μM | 100 μM |  | 24% | 1370 µg/mL (≈ 1020 µM) | > 6260 µg/mL |  |  |  |  |
| CN(C(=O)N(c1nn(CC(F)(F)F)c2c(-c3ccc(C#CC(C)(C)S(C)(=O)=O)nc3[C@H](Cc3cc(F)cc(F)c3)NC(=O)Cn3nc(C(F)(F)F)c4c3C(F)(F)[C@@H]3C[C@H]43)ccc(Cl)c12)S(C)(=O)=O)c1ncccc1COP(=O)(O)O [Compound 53, (2-(3-(4-chloro-7-(2-((S)-1-(2-((3bS,4aR)-5,5-difluoro-3-(trifluoromethyl)-3b,4,4a,5-tetrahydro-1H-cyclopropa[3,4]cyclopenta[1,2-c]pyrazol-1-yl)acetamido)-2-(3,5-difluorophenyl)ethyl)-6-(3-methyl-3-(methylsulfonyl)but-1-yn-1-yl)pyridin-3-yl)-1-(2,2,2-trifluoroethyl)-1H-indazol-3-yl)-1-methyl-3-(methylsulfonyl)ureido)pyridin-3-yl)methyl dihydrogen phosphate] |  |  |  | 5% |  |  | 2/78 μM | 2/78 μM | 391 µg/mL | 958 µg/mL |
| CN(C(=O)N(c1nn(CC(F)(F)F)c2c(-c3ccc(C#CC(C)(C)S(C)(=O)=O)nc3[C@H](Cc3cc(F)cc(F)c3)NC(=O)Cn3nc(C(F)(F)F)c4c3C(F)(F)[C@@H]3C[C@H]43)ccc(Cl)c12)S(C)(=O)=O)c1ncc(C(=O)O)cc1COP(=O)(O)O [Compound 62, 6-(3-(4-chloro-7-(2-((S)-1-(2-((3bS,4aR)-5,5-difluoro-3-(trifluoromethyl)-3b,4,4a,5-tetrahydro-1H-cyclopropa[3,4]cyclopenta[1,2-c]pyrazol-1-yl)acetamido)-2-(3,5-difluorophenyl)ethyl)-6-(3-methyl-3-(methylsulfonyl)but-1-yn-1-yl)pyridin-3-yl)-1-(2,2,2-trifluoroethyl)-1H-indazol-3-yl)-1-methyl-3-(methylsulfonyl)ureido)-5-((phosphonooxy)methyl)nicotinic acid] | 1 μM | 67 μM | 8 ^c % |  | 490 µg/mL (≈ 390 µM) |  |  |  |  |  |
